Test results: US9951046B2, “TRPA1 modulators” (Algomedix, Inc., priority 2014, dated 2018)
Read-outs that look alike come from different tables or passages of the source.

Molecular target: T1, human TRPA1 (Homo sapiens, UniProt O75762)
T1 construct: expressed in transfected cells
Assay: Cell-based functional intracellular calcium ([Ca2+]i) assay, Fluo-4/Fluo-8, FlexStation, challenge with reference TRPA1 agonist (FFA, AITC or 4-HNE)
Procedure: A stable HEK293 cell line that expresses human TRPA1 in an inducible manner was employed in this assay. […] The expression of TRPA1 was induced by including 1 μg/ml doxycycline in the culture medium. For the induced cells, ruthenium red (5 μM) was also added to minimize the constitutive TRPA1 channel activity and cells were used 14-18 hrs after induction. To measure [Ca^2+]i changes, cells were seeded in wells of 96-well plates at ˜100,000 cells/well and grown for 14-18 hrs to reach confluency. To prevent cell loss from subsequent washing, the wells were treated with 20 μg/ml polyornithine (MW>30,000, Sigma, St Louis, Mo.) for >15 min and rinsed once with Hank's balanced salt solution without Mg^2+ and Ca^2+. […] In some experiments, Fluo-8-AM was used instead of Fluo-4-AM as the calcium-sensitive fluorescent probe. Probenecid (2 mM) was included in all solutions to prevent the leakage of Fluo-4 or Fluo-8 from the cells. At the end of the incubation, cells were washed three times with ECS and placed in 80 μL of the same solution. Fluorescence changes were measured using a fluid handling integrated fluorescence plate reader, FlexStation (Molecular Devices, Sunnyvale, Calif.). Stock solutions of test compounds were initially solubilized in 100% DMSO and then serially diluted to achieve the desired final concentration. […] Drugs were diluted into ECS at 2× or 3× the desired final concentrations and delivered to the sample plate by an integrated robotic 8-channel pipettor at preprogrammed time points. […] Experiments were performed at 20-25° C. For certain experiments, 0.1% BSA was included with the cells and test compounds.
The kinetic data obtained at each test concentration of drug represents a series of fluorescent intensities as a function of time.
Using a sequential addition protocol, test compounds were initially applied to the cells loaded with Fluo-4 or Fluo-8 and fluorescence changes in each well monitored for 2.5 min. The plate was read again in a kinetic mode after a 15-30 min incubation with the test compounds after obtaining baseline values (about 30 s) and subsequent addition of challenge with a reference TRPA1 agonist. Reference TRPA1 agonists in testing each compound included at least one of flufenamic acid (FFA), allyl isothiocyanate (AITC) and 4-hydroxynonenal (4-HNE).
Antagonist activity can be expressed in terms of IC50 with respect to TRPA1 and agonist activity can be expressed in terms of EC50 with respect to TRPA1.

[1] = HEK293 cells expressing human TRPA1, IC50 class after addition of reference TRPA1 agonist (FFA, AITC or 4-HNE), read-out: human TRPA1-HEK Activity

T1 sequence (O75762 whole entry): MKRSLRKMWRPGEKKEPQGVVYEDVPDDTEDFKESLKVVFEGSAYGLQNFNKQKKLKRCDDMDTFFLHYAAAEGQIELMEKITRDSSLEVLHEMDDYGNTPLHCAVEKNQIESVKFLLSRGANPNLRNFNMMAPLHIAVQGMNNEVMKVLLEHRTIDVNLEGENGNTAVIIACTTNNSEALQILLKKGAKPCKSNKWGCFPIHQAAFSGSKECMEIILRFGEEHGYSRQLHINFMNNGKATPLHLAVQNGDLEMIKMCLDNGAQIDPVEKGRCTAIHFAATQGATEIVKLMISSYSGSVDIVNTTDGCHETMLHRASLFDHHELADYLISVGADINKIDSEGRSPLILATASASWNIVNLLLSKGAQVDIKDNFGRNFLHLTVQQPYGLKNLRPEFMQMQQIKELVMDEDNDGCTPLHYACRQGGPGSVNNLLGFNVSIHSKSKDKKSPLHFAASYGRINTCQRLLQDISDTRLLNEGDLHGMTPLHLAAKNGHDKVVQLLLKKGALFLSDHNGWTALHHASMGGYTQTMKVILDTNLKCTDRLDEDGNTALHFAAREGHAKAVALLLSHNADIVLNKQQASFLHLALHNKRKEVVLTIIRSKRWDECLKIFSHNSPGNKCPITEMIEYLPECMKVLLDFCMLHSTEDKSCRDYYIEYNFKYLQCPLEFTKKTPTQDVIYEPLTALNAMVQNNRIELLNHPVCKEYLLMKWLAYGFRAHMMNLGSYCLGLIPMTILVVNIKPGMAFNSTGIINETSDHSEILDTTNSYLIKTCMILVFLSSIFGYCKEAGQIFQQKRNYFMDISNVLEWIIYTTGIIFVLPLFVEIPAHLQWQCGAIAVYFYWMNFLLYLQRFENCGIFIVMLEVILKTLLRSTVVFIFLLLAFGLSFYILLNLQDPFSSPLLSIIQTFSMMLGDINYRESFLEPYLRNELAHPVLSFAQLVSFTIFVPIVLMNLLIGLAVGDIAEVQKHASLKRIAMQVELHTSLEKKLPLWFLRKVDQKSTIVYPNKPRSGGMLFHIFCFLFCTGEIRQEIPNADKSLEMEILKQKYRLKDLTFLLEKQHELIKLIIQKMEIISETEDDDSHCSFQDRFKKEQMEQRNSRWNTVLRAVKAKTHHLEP

`O=C(c1cc(-c2ccncc2)n(-c2cc(F)c(F)c(F)c2)n1)N1CCC2(CC1)OCCO2` [Compound 142] showed an IC50 of over 25 µM.
For `O=C(c1cc(-c2cccnc2)n(-c2ccc(C(F)(F)F)cc2C(F)(F)F)n1)N1CCC2(CC1)C(=O)NCN2c1ccc(F)cc1` [Compound 322], the IC50 [1] was 0.001 to 5 µM.
`O=C(c1cc(-c2cccnc2)n(-c2cc(F)c(F)c(F)c2)n1)N1CCC2(CC1)C(=O)NCN2c1ccc(I)cc1` [Compound 200] showed an IC50 [1] of 0.001 to 5 µM.
Work on `N#CC1(c2ccccc2)CCN(C(=O)c2cc(-c3ccncc3)n(-c3ccccc3)n2)CC1` [Compound 28] yielded an IC50 [1] of over 25 µM.
Work on `Cc1cc(OC(F)(F)F)ccc1-n1nc(C(=O)N2CCC3(CC2)C(=O)NCN3c2ccc(F)cc2)cc1-c1cccnc1` [Compound 226] yielded an IC50 [1] of 0.001 to 5 µM.
With `O=C(Nc1ccc2c(c1)OC(F)(F)O2)c1cc(-c2ccncc2)n(-c2ccc(F)c(F)c2)n1` [Compound 88] the IC50 [1] was 5 to 25 µM.
`O=C1OC2(CCN(C(=O)c3cc(-c4ccncc4)n(-c4ccc(C(F)(F)F)nc4)n3)CC2)c2ccc(Cl)cc21` [Compound 124] showed an IC50 [1] of over 25 µM.
With `N#Cc1ccc2c(c1)[nH]c(=O)n2C1CCN(C(=O)c2cc(-c3cccnc3)n(-c3ccc(C(F)(F)F)c(F)c3)n2)CC1` [Compound 228] the IC50 [1] was 0.001 to 5 µM.
`Cn1c(=O)c(=O)n(C)c2cc(NC(=O)c3cc(-c4ccncc4)n(-c4ccc(C(F)(F)F)c(F)c4)n3)ccc21` [Compound 112] was tested, and the IC50 [1] was over 25 µM.
In the case of `Cn1c(=O)c(=O)n(C)c2cc(NC(=O)c3cc(-c4ccncc4)n(-c4ccc(C(F)(F)F)cc4)n3)ccc21` [Compound 69], the IC50 [1] is reported as over 25 µM.
`O=C(c1cc(-c2ccncc2)n(-c2cnccn2)n1)N1CCC2(CC1)C(=O)NCN2c1ccccc1` [Compound 167] showed an IC50 [1] of 5 to 25 µM.
`COc1cc(F)ccc1N1CNC(=O)C12CCN(C(=O)c1cc(-c3cccnc3)n(-c3ccc(C(F)(F)F)c(F)c3)n1)CC2` [Compound 197] was tested, and the IC50 [1] was 5 to 25 µM.
`O=C(c1cc(-c2ccnnc2)n(-c2cc(F)c(F)c(F)c2)n1)N1CCC(n2c(=O)[nH]c3ccc(F)c(F)c32)CC1` [Compound 321] showed an IC50 [1] of 0.001 to 5 µM.
`N#Cc1cc(-n2nc(C(=O)N3CCC(n4c(=O)[nH]c5ccc(F)c(F)c54)CC3)cc2-c2cccnc2)ccc1F` [Compound 248] gave an IC50 [1] of 0.001 to 5 µM.
Work on `O=C(c1cc(-c2cnccn2)n(-c2ccc(F)c(C(F)(F)F)c2)n1)N1CCC2(CC1)C(=O)NCN2c1ccc(F)cc1` [Compound 306] yielded an IC50 [1] of 0.001 to 5 µM.
`O=C(c1cc(-c2ccncc2)n(-c2ccccc2)n1)N1CCN(c2cc(C(F)(F)F)cc(C(F)(F)F)c2)CC1` [Compound 33] gave an IC50 [1] of over 25 µM.
Molecule `O=C(c1cc(-c2ccnnc2)n(-c2ccc(C(F)(F)F)c(F)c2)n1)N1CCC2(CC1)C(=O)NCN2c1ccc(F)cc1` [Compound 320, 8-(1-(3-fluoro-4-(trifluoromethyl)phenyl)-5-(pyridazin-4-yl)-1H-pyrazole-3-carbonyl)-1-(4-fluorophenyl)-1,3,8-triazaspiro [4.5]decan-4-one] has an IC50 [1] of 0.001 to 5 µM.
Work on `O=C(c1cc(-c2ccncc2)n(-c2ccc(C(F)(F)F)cc2)n1)N1CCC2(CC1)OCc1ccccc12` [Compound 57] yielded an IC50 [1] of over 25 µM.
Molecule `O=C(c1cc(-c2ccncc2)n(-c2ccc(C(F)(F)F)c(F)c2)n1)N1CC(=O)N2CCc3ccccc3C2C1` (centres unmarked) [Compound 104] has an IC50 [1] of over 25 µM.
`O=C(c1cc(-c2cccnc2)n(-c2ccc(C(F)(F)F)c(F)c2)n1)N1CCN2C(=O)OC3(CC3)[C@@H]2C1` [Compound 192] gave an IC50 of 0.001 to 5 µM.
`O=C1OC2(CCN(C(=O)c3cc(-c4ccncc4)n(-c4ccc(C(F)(F)F)c(F)c4)n3)CC2)c2ccccc21` [Compound 102] gave an IC50 [1] of over 25 µM.
Molecule `O=C(c1cc(-c2ccncc2)n(-c2ccccc2)n1)N1CCN(c2ccc(C(F)(F)F)cn2)CC1` [Compound 32] has an IC50 [1] of over 25 µM.
Work on `O=C1CSC2(CCN(C(=O)c3cc(-c4ccncc4)n(-c4ccc(C(F)(F)F)c(F)c4)n3)CC2)N1` [Compound 111] yielded an IC50 [1] of over 25 µM.
For `O=C(c1cc(-c2cccnc2)n(-c2ccc(C(F)(F)F)cc2C(F)(F)F)n1)N1CCC(n2c(=O)[nH]c3ccc(F)c(F)c32)CC1` [Compound 236], the IC50 [1] was 0.001 to 5 µM.
With `O=C1Nc2cc(F)c(F)cc2C2(CCN(C(=O)c3cc(-c4cccnc4)n(-c4ccc(F)c(C(F)(F)F)c4)n3)CC2)O1` [Compound 273] the IC50 [1] was 0.001 to 5 µM.
For `N#Cc1ccc2[nH]c(=O)n(C3CCN(C(=O)c4cc(-c5cccnc5)n(-c5ccc(C(F)(F)F)c(F)c5)n4)CC3)c2c1` [Compound 190], the IC50 [1] was 0.001 to 5 µM.
With `O=C(c1cc(-c2cccnc2)n(-c2ccc(I)c(C(F)(F)F)c2)n1)N1CCC2(CC1)C(=O)NCN2c1ccc(F)cc1` [Compound 326] the IC50 [1] was 0.001 to 5 µM.
`Cn1c(=O)n(C2CCN(C(=O)c3cc(-c4ccncc4)n(-c4ccc(C(F)(F)F)nc4)n3)CC2)c2ccccc21` [Compound 126] showed an IC50 [1] of over 25 µM.
Molecule `O=C(c1cc(-c2ccncc2)n(-c2cc(C(F)(F)F)cc(C(F)(F)F)c2)n1)N1CCC(n2c(=O)[nH]c3ccccc32)CC1` [Compound 159] has an IC50 [1] of 5 to 25 µM.
Work on `O=C1Nc2ccc(F)cc2C2(CCN(C(=O)c3cc(-c4cccnc4)n(-c4ccc(F)c(C(F)(F)F)c4)n3)CC2)O1` [Compound 282] yielded an IC50 [1] of 0.001 to 5 µM.
For `O=C(c1cc(-c2cccnc2)n(-c2ccc(I)cc2)n1)N1CCC2(CC1)C(=O)NCN2c1ccc(F)cc1` [Compound 246], the IC50 [1] was 0.001 to 5 µM.
Work on `O=C(c1nn(-c2ccc(F)c(C(F)(F)F)c2)c2c1CCc1ncccc1-2)N1CCC2(CC1)C(=O)NCN2c1ccc(F)cc1` [Compound 313] yielded an IC50 [1] of 0.001 to 5 µM.
For `O=C(c1cc(-c2ccncc2)n(-c2ccc3c(c2)OCO3)n1)N1CCC2(CC1)OCCO2` [Compound 157], the IC50 was over 25 µM.
In the case of `O=C(c1cc(-c2ccncc2)n(-c2ccc(C(F)(F)F)nc2)n1)N1CCC(n2c(=O)[nH]c3ccccc32)CC1` [Compound 165], the IC50 [1] is reported as over 25 µM.
`O=C(c1cc(-c2ccncc2)n(-c2ccc(F)cc2F)n1)N1CCC(n2c(=O)[nH]c3ccccc32)CC1` [Compound 153] was tested, and the IC50 [1] was over 25 µM.
`Cc1c(C(=O)N2CCC3(CC2)C(=O)NCN3c2ccc(F)cc2)nn(-c2ccc(C(F)(F)F)c(F)c2)c1-c1cccnc1` [Compound 265] was tested, and the IC50 [1] was 0.001 to 5 µM.
In the case of `O=C(c1cc(-c2ccncc2)n(-c2ccc(C(F)(F)F)nc2)n1)N1CCC2(CC1)OCCO2` [Compound 166], the IC50 is reported as over 25 µM.
In the case of `O=C(c1cc(-c2ccncc2)n(-c2ccc(C(F)(F)F)c(F)c2)n1)N1CCC(N2C(=O)OC[C@H]2c2ccccc2)CC1` [Compound 106], the IC50 [1] is reported as over 25 µM.
`CC1CC(n2c(=O)[nH]c3ccc(F)c(F)c32)CC(C)N1C(=O)c1cc(-c2cccnc2)n(-c2cc(F)c(F)c(F)c2)n1` (centres unmarked) [Compound 203] showed an IC50 [1] of over 25 µM.
`O=C(c1cc(-c2cncc(F)c2)n(-c2ccc(C(F)(F)F)c(F)c2)n1)N1CCC(n2c(=O)[nH]c3ccc(F)c(F)c32)CC1` [Compound 319] was tested, and the IC50 [1] was 0.001 to 5 µM.
Molecule `O=C(Nc1ccc2c(c1)COC2=O)c1cc(-c2ccncc2)n(-c2ccc(F)c(F)c2)n1` [Compound 92] has an IC50 [1] of over 25 µM.
Molecule `O=C(c1cc(-c2ccncc2)n(-c2ccc(F)c(F)c2)n1)N1CCC(n2c(=O)[nH]c3ccccc32)CC1` [Compound 150] has an IC50 [1] of 5 to 25 µM.
For `O=C(c1cc(-c2ccncc2)n(-c2ccc3c(c2)OCO3)n1)N1CCC2(CC1)C(=O)NCN2c1ccccc1` [Compound 155], the IC50 [1] was over 25 µM.
Molecule `N#Cc1cc(C(F)(F)F)ccc1-n1nc(C(=O)N2CCC3(CC2)C(=O)NCN3c2ccc(F)cc2)cc1-c1cccnc1` [Compound 323] has an IC50 [1] of 0.001 to 5 µM.
Work on `O=C1OC2(CCN(C(=O)c3cc(-c4ccncc4)n(-c4ccc(F)c(F)c4)n3)CC2)c2ccccc21` [Compound 80] yielded an IC50 [1] of over 25 µM.
`O=C(c1cc(-c2cccnc2)n(-c2cc(F)c(F)c(F)c2)n1)N1C2CCC1CC(n1c(=O)[nH]c3ccc(F)c(F)c31)C2` (centres unmarked) [Compound 250] gave an IC50 [1] of over 25 µM.
Molecule `O=C(c1cc(-c2ccncc2)n(-c2ccccc2)n1)N1CCC2(CC1)OCc1ccccc12` [Compound 170] has an IC50 [1] of over 25 µM.
Molecule `O=C1OC2(CCN(C(=O)c3cc(-c4ccncc4)n(-c4ccc(C(F)(F)F)cc4)n3)CC2)c2ccccc21` [Compound 58] has an IC50 [1] of over 25 µM.
`Cc1cc(OC(F)(F)F)ccc1-n1nc(C(=O)N2CCC3(CC2)C(=O)NCN3c2ccc(F)c(F)c2)cc1-c1cccnc1` [Compound 225] showed an IC50 [1] of 0.001 to 5 µM.
`O=C(c1cc(-c2ccncc2)n(-c2ccc(F)c(F)c2)n1)N1CCC2(CC1)NCN(c1ccccc1)C2=O` [Compound 95] showed an IC50 [1] of over 25 µM.
With `O=C(c1cc(-c2ccncc2)n(-c2ccc(C(F)(F)F)cc2)n1)N1CCC2(CC1)NCN(c1ccccc1)C2=O` [Compound 73] the IC50 [1] was over 25 µM.
Work on `N#Cc1cccc2[nH]c(=O)n(C3CCN(C(=O)c4cc(-c5cccnc5)n(-c5ccc(C(F)(F)F)c(F)c5)n4)CC3)c12` [Compound 243] yielded an IC50 [1] of over 25 µM.
For `O=C(c1cc(-c2cccnc2)n(-c2cc(F)c(F)c(F)c2)n1)N1CCC2(CC1)C(=O)NCN2c1ccc(F)cc1F` [Compound 257], the IC50 [1] was over 25 µM.
